Assay: Clinical study Part B, two-week repeat dose plasma EPA/DHA pharmacokinetics
Conditions: human, in vivo
Excerpt: Part A comprised single dose administration of emulsion pre-concentrate capsules or liquid emulsion equivalent to 1.68 g LOVAZA®. Part B comprised two-week, repeat dosing of selected doses of the emulsion pre-concentrate capsules. […] Part B was a single blind, randomized, parallel group, placebo controlled study consisting of a 2-week repeat dose period with 3 dose levels of the K85EE emulsion pre-concentrate capsules, and one dose of LOVAZA®. Within each cohort, at least eight healthy subjects were randomized to an active treatment group, and at least 2 subjects were randomized to a matching placebo (1000 mg capsule containing corn oil, NF 994 mg and D-Alpha Tocopherol, USP 6 mg). Data from placebo subjects was pooled for analysis. Subjects, checked into the clinical research unit, participated in a test meal on Day -2 and had 24-hr baseline EPA/DHA profiles on Day -1 and Day 1. Subjects were released from the clinic on Day 2, and returned for daily dosing on Days 3 through 12 (with a brief outpatient visit on Day 6). Subjects checked into the clinic again on the evening of Day 12, and on Day 13 they had 24-hr EPA/DHA profiles collected. Subjects were released from the clinic on Day 14, following procedures including a test meal and triglyceride sampling. In Part B, subjects were assigned to either a) one of 3 dose levels of the K85EE emulsion pre-concentrate capsules, b) LOVAZA®, or c) to placebo to match one of the 4 active treatments. Subjects were blinded as to whether they were receiving an active treatment or the corresponding placebo. The randomization ratio for active:placebo within each cohort was 4:1. Part B treatments are summarized below: The K85EE emulsion pre-concentrate capsules and LOVAZA® were administered as capsules, once daily in the manner described for Part A, and the placebos were administered as for the corresponding active treatment. Subjects were required to fast only on PK sampling days. Plasma EPA and DHA concentrations were determined according to the above method.

For omega-3-acid ethyl esters [LOVAZA], the “Free DHA AUC (0-24 h) Geometric LS Mean, Ref. (Day 1)” value was 5.61 µg·h/mL, the “Free DHA AUC (0-24 h) Geometric LS Mean, Test (Day 13)” value was 9.40 µg·h/mL and the “Free DHA Cmax Geometric LS Mean, Ref. (Day 1)” value was 0.43 µg/mL. The “Free DHA Cmax Geometric LS Mean, Test (Day 13)” value was 0.79 µg/mL, the “Free EPA AUC (0-24 h) Geometric LS Mean, Ref. (Day 1)” value was 1.66 µg·h/mL and the “Free EPA AUC (0-24 h) Geometric LS Mean, Test (Day 13)” value was 3.22 µg·h/mL. The “Free EPA Cmax Geometric LS Mean, Ref. (Day 1)” value was 0.09 µg/mL, the “Free EPA Cmax Geometric LS Mean, Test (Day 13)” value was 0.20 µg/mL and the “Total DHA AUC (0-24 h) Geometric LS Mean, Ref. (Day 1)” value was 810.21 µg·h/mL. For the same substance, the “Total DHA AUC (0-24 h) Geometric LS Mean, Test (Day 13)” value was 1356.51 µg·h/mL, the “Total DHA Cmax Geometric LS Mean, Ref. (Day 1)” value was 38.29 µg/mL and the “Total DHA Cmax Geometric LS Mean, Test (Day 13)” value was 65.37 µg/mL. For the same substance, the “Total EPA AUC (0-24 h) Geometric LS Mean, Ref. (Day 1)” value was 251.67 µg·h/mL, the “Total EPA AUC (0-24 h) Geometric LS Mean, Test (Day 13)” value was 611.34 µg·h/mL and the “Total EPA Cmax Geometric LS Mean, Ref. (Day 1)” value was 12.86 µg/mL. For the same substance, the “Total EPA Cmax Geometric LS Mean, Test (Day 13)” value was 30.84 µg/mL.
